Test results published in patent US3960833A, “Butirosin A 3",5"-O-isopropylidene derivatives” (Bristol-Myers Company, priority 1975, dated 1976).
Converted amounts (≈) assume the structure as drawn. Where two headings read alike, the source gives them in different places.

Tests used:
Assay in all cases: MIC by Steers agar-dilution method on Mueller-Hinton medium
Assay type in all cases: cell-based
E. coli A20107 = conditions: Escherichia coli
Source text: (§1) Illustrated below is a table showing the minimal inhibitory concentrations (MIC's) of butirosin A, 4'-deoxybutirosin A and compound 11 (BB-K186) against a variety of gram-positive and gram-negativebacteria as obtained by the Steers agar-dilution method on Mueller-Hinton medium.

E. coli A20732 = conditions: Escherichia coli
Source text: as §1

E. coli A20895 = conditions: Escherichia coli
Source text: as §1

E. coli JR35/C600 = conditions: Escherichia coli
Source text: as §1

E. coli JR66/W677 = conditions: Escherichia coli
Source text: as §1

E. coli ML1630 = conditions: Escherichia coli
Source text: as §1

E. coli NIHJ = conditions: Escherichia coli
Source text: as §1

E. coli NR79/W677 = conditions: Escherichia coli
Source text: as §1

E. coli PO1495 = conditions: Escherichia coli
Source text: as §1

E. coli R5 = conditions: Escherichia coli
Source text: as §1

Ent. cloacae A20364 = conditions: Enterobacter cloacae
Source text: as §1

Ent. cloacae A21006 = conditions: Enterobacter cloacae
Source text: as §1

K. pneumoniae 22-3038 = conditions: Klebsiella pneumoniae, 223038
Source text: as §1

K. pneumoniae D11 = conditions: Klebsiella pneumoniae
Source text: as §1

Pr. mirabilis A9554 = conditions: Proteus mirabilis
Source text: as §1

Pr. morganii A20031 = conditions: Morganella morganii
Source text: as §1

Pr. vulgaris A9436 = conditions: Proteus vulgaris
Source text: as §1

Prov. stuartii A20894 = conditions: Providencia stuartii
Source text: as §1

Ps. aeruginosa A20601 = conditions: Pseudomonas aeruginosa
Source text: as §1

Ps. aeruginosa A20635 = conditions: Pseudomonas aeruginosa
Source text: as §1

Ps. aeruginosa A20896 = conditions: Pseudomonas aeruginosa
Source text: as §1

Ps. aeruginosa A9930 = conditions: Pseudomonas aeruginosa
Source text: as §1

Ps. aeruginosa GN-315 = conditions: Pseudomonas aeruginosa, GN315
Source text: as §1

Ps. aeruginosa No. 130 = conditions: Pseudomonas aeruginosa
Source text: as §1

Pseudomonas sp. A20621 = test system: Pseudomonas sp. A20621
Source text: as §1

S. aureus A20239 = conditions: Staphylococcus aureus
Source text: as §1

S. aureus D133 = conditions: Staphylococcus aureus
Source text: as §1

S. aureus D137 = conditions: Staphylococcus aureus
Source text: as §1

S. aureus D193 = conditions: Staphylococcus aureus
Source text: as §1

S. aureus Smith = conditions: Staphylococcus aureus
Source text: as §1

Ser. marcescens A20019 = conditions: Serratia marcescens
Source text: as §1

Ser. marcescens A21247 = conditions: Serratia marcescens
Source text: as §1

NCC[C@H](O)C(=O)N[C@@H]1C[C@H](N)[C@@H](O[C@H]2O[C@H](CN)[C@@H](O)[C@H](O)[C@H]2N)[C@H](O[C@@H]2O[C@H](CO)[C@H](O)[C@H]2O)[C@H]1O [Bu-1709A1, butirosin A]
MIC (E. coli A20107; A20107): 50 µg/mL (≈ 90 µM) | MIC (E. coli A20732; A20732): 1.6 µg/mL (≈ 2.88 µM) | MIC (E. coli A20895; A20895): 3.1 µg/mL (≈ 5.58 µM) | MIC (E. coli JR35/C600): 0.8 µg/mL (≈ 1.44 µM) | MIC (E. coli JR66/W677): 100 µg/mL (≈ 180 µM) | MIC (E. coli ML1630; ML1630): 3.1 µg/mL (≈ 5.58 µM) | MIC (E. coli NIHJ): 1.6 µg/mL (≈ 2.88 µM) | MIC (E. coli NR79/W677): > 100 µg/mL | MIC (E. coli PO1495): 1.6 µg/mL (≈ 2.88 µM) | MIC (E. coli R5; R5): 3.1 µg/mL (≈ 5.58 µM) | MIC (Ent. cloacae A20364; A20364): 1.6 µg/mL (≈ 2.88 µM) | MIC (Ent. cloacae A21006; A21006): > 100 µg/mL | MIC (K. pneumoniae 22-3038): > 100 µg/mL | MIC (K. pneumoniae D11; D11): 0.8 µg/mL (≈ 1.44 µM) | MIC (Pr. mirabilis A9554; A9554): 1.6 µg/mL (≈ 2.88 µM) | MIC (Pr. morganii A20031; A20031): 1.6 µg/mL (≈ 2.88 µM) | MIC (Pr. vulgaris A9436; A9436): 0.4 µg/mL (≈ 0.72 µM) | MIC (Prov. stuartii A20894; A20894): > 100 µg/mL | MIC (Ps. aeruginosa A20601; A20601): 50 µg/mL (≈ 90 µM) | MIC (Ps. aeruginosa A20635; A20635): > 100 µg/mL | MIC (Ps. aeruginosa A20896; A20896): > 100 µg/mL | MIC (Ps. aeruginosa A9930; A9930): 6.3 µg/mL (≈ 11.3 µM) | MIC (Ps. aeruginosa GN-315): > 100 µg/mL | MIC (Ps. aeruginosa No. 130; NO.130): 25 µg/mL (≈ 45 µM) | MIC (Pseudomonas sp. A20621; Pseudomonas, SP.A20621): 100 µg/mL (≈ 180 µM) | MIC (S. aureus A20239; A20239): 25 µg/mL (≈ 45 µM) | MIC (S. aureus D133; D133): 6.3 µg/mL (≈ 11.3 µM) | MIC (S. aureus D137; D137): 25 µg/mL (≈ 45 µM) | MIC (S. aureus D193; D193): 3.1 µg/mL (≈ 5.58 µM) | MIC (S. aureus Smith): 0.8 µg/mL (≈ 1.44 µM) | MIC (Ser. marcescens A20019; A20019): 6.3 µg/mL (≈ 11.3 µM) | MIC (Ser. marcescens A21247; A21247): 6.3 µg/mL (≈ 11.3 µM)

NCC[C@H](O)C(=O)N[C@@H]1C[C@H](N)[C@@H](O[C@H]2O[C@H](CN)C[C@H](O)[C@H]2N)[C@H](O[C@@H]2O[C@H](CO)[C@H](O)[C@H]2O)[C@H]1O [Bu-1975C1, 4'-deoxybutirosin A]
MIC (E. coli A20107; E. coli A20107, Mueller-Hinton medium, read-out: MIC): 3.1 µg/mL (≈ 5.75 µM) | MIC (E. coli A20732; E. coli A20732, Mueller-Hinton medium, read-out: MIC): 1.6 µg/mL (≈ 2.97 µM) | MIC (E. coli A20895; E. coli A20895, Mueller-Hinton medium, read-out: MIC): 3.1 µg/mL (≈ 5.75 µM) | MIC (E. coli JR35/C600): 0.8 µg/mL (≈ 1.48 µM) | MIC (E. coli JR66/W677): 6.3 µg/mL (≈ 11.7 µM) | MIC (E. coli ML1630; E. coli ML1630, Mueller-Hinton medium, read-out: MIC): 3.1 µg/mL (≈ 5.75 µM) | MIC (E. coli NIHJ; E. coli NIHJ, Mueller-Hinton medium, read-out: MIC): 1.6 µg/mL (≈ 2.97 µM) | MIC (E. coli NR79/W677): > 100 µg/mL | MIC (E. coli PO1495): 1.6 µg/mL (≈ 2.97 µM) | MIC (E. coli R5; E. coli R5, Mueller-Hinton medium, read-out: MIC): 3.1 µg/mL (≈ 5.75 µM) | MIC (Ent. cloacae A20364; Ent. cloacae A20364, Mueller-Hinton medium, read-out: MIC): 3.1 µg/mL (≈ 5.75 µM) | MIC (Ent. cloacae A21006; Ent. cloacae A21006, Mueller-Hinton medium, read-out: MIC): 6.3 µg/mL (≈ 11.7 µM) | MIC (K. pneumoniae 22-3038; K. pneumoniae 22-3038, Mueller-Hinton medium, read-out: MIC): 6.3 µg/mL (≈ 11.7 µM) | MIC (K. pneumoniae D11; K. pneumoniae D11, Mueller-Hinton medium, read-out: MIC): 0.8 µg/mL (≈ 1.48 µM) | MIC (Pr. mirabilis A9554; Pr. mirabilis A9554, Mueller-Hinton medium, read-out: MIC): 1.6 µg/mL (≈ 2.97 µM) | MIC (Pr. morganii A20031; Pr. morganii A20031, Mueller-Hinton medium, read-out: MIC): 3.1 µg/mL (≈ 5.75 µM) | MIC (Pr. vulgaris A9436; Pr. vulgaris A9436, Mueller-Hinton medium, read-out: MIC): 0.8 µg/mL (≈ 1.48 µM) | MIC (Prov. stuartii A20894; Prov. stuartii A20894, Mueller-Hinton medium, read-out: MIC): > 100 µg/mL | MIC (Ps. aeruginosa A20601; Ps. aeruginosa A20601, Mueller-Hinton medium, read-out: MIC): 25 µg/mL (≈ 46.3 µM) | MIC (Ps. aeruginosa A20635; Ps. aeruginosa A20635, Mueller-Hinton medium, read-out: MIC): > 100 µg/mL | MIC (Ps. aeruginosa A20896; Ps. aeruginosa A20896, Mueller-Hinton medium, read-out: MIC): 50 µg/mL (≈ 92.7 µM) | MIC (Ps. aeruginosa A9930; Ps. aeruginosa A9930, Mueller-Hinton medium, read-out: MIC): 1.6 µg/mL (≈ 2.97 µM) | MIC (Ps. aeruginosa GN-315; Ps. aeruginosa GN-315, Mueller-Hinton medium, read-out: MIC): > 100 µg/mL | MIC (Ps. aeruginosa No. 130; Ps. aeruginosa No. 130, Mueller-Hinton medium, read-out: MIC): 25 µg/mL (≈ 46.3 µM) | MIC (Pseudomonas sp. A20621; Pseudomonas sp. A20621, Mueller-Hinton medium, read-out: MIC): > 100 µg/mL | MIC (S. aureus A20239; S. aureus A20239, Mueller-Hinton medium, read-out: MIC): 6.3 µg/mL (≈ 11.7 µM) | MIC (S. aureus D133; S. aureus D133, Mueller-Hinton medium, read-out: MIC): 6.3 µg/mL (≈ 11.7 µM) | MIC (S. aureus D137; S. aureus D137, Mueller-Hinton medium, read-out: MIC): 25 µg/mL (≈ 46.3 µM) | MIC (S. aureus D193; S. aureus D193, Mueller-Hinton medium, read-out: MIC): 3.1 µg/mL (≈ 5.75 µM) | MIC (S. aureus Smith; S. aureus Smith, Mueller-Hinton medium, read-out: MIC): 1.6 µg/mL (≈ 2.97 µM) | MIC (Ser. marcescens A20019; Ser. marcescens A20019, Mueller-Hinton medium, read-out: MIC): 6.3 µg/mL (≈ 11.7 µM) | MIC (Ser. marcescens A21247; Ser. marcescens A21247, Mueller-Hinton medium, read-out: MIC): 6.3 µg/mL (≈ 11.7 µM)
